From patent publication US20240417405A1, “Substituted Spiro Derivatives” (Janssen Pharmaceutica NV, priority 2021, published 2024)

Tests used:
[1] = molecular target: T1, menin/MLL (terbium chelate-labeled menin, FITC-MBM1 peptide) (Homo sapiens, UniProt O00255, T541A); assay: Menin/MLL homogenous time-resolved fluorescence (HTRF) assay; format: binding; settings: 30 min incubation
T1 construct: Menin (a.a 1-610-6xhis tag)
T1 sequence (O00255 with tags, fused parts or gaps T541A): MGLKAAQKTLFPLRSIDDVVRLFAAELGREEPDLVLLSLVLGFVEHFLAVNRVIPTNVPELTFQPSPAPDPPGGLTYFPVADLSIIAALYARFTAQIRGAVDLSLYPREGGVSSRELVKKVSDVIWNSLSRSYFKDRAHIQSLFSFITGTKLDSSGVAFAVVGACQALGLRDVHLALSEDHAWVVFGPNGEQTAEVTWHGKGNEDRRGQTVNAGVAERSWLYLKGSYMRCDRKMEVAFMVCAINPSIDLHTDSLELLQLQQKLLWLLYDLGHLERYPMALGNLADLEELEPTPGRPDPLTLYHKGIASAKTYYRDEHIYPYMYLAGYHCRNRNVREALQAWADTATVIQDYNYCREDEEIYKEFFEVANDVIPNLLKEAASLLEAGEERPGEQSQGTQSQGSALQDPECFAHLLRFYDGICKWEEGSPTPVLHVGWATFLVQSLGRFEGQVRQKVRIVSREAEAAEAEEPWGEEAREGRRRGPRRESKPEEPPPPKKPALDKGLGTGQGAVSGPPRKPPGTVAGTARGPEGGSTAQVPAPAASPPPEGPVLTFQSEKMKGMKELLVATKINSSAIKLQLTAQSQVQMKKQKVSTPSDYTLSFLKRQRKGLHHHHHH
How it was run: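 Percent inhibition, calculated from the 520/490 nm HTRF ratio against high and low controls, was fitted for IC50 with a 0.1 nM detection limit. Reactions held 200 pM Tb-menin and 75 nM FITC-MBM1 in pH 7.5 Tris buffer with 0.5% DMSO.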

MOLM14 cells = assay: Proliferation assay, spheroid-like growth, MOLM14 (MLL-AF9 rearranged); format: cell-based, human; settings: Homo sapiens, MOLM-14, 192 h, 8 days, confluence as measure of spheroid size, read-out: spheroid assay_OneTime MOLM14 IC50
How it was run: (§1)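 Seed cells at linear-growth densities in low-attachment wells; add test compound at several concentrations, normalized to 0.3% DMSO; incubate 8 days at 37 °C; image spheroids and measure confluence; calculate absolute IC50 against DMSO and reference-compound controls.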

KO-52 cells = assay: Proliferation assay, spheroid-like growth, KO-52 (MLL wildtype control cell line); format: cell-based, human; settings: Homo sapiens, 192 h, KO-52 control cells, 8 days, confluence as measure of spheroid size; read-out: spheroid assay_OneTime KO-52 IC50
How it was run: as §1

Compound | IC50 [1] | IC50 (MOLM14 cells) | IC50 (KO-52 cells)
CC(C)[C@@H](C1CC2(CCN2CC2COC2)C1)N1CC2(CCN(c3ncnnc3Oc3ccc(F)cc3-c3cncnc3C3CC3)C2)C1 (single isomer, unassigned) [Compound 158] | 0.0008 µM | 0.48 µM | > 15 µM
CC(C)C(C1CC(C)(O)C1)N1CC2(CCN(c3ncnnc3Oc3ccc(F)cc3-c3cncnc3C3CC3)C2)C1 (single isomer, unassigned) [Compound 159] | 0.0003 µM | 0.11 µM | 1.1 µM
CC(C)[C@@H](C1CC(C)(O)C1)N1CC2(CCN(c3ncnnc3Oc3ccc(F)cc3-c3cncnc3C3CC3)C2)C1 (single isomer, unassigned) [Compound 160] | 0.0232 µM | > 3.75 µM | > 15 µM
CC(C)[C@H]([C@H]1C[C@@H](NC2CCOCC2)C1)N1CC2(CCN(c3ncnnc3Oc3ccc(F)cc3-c3cncnc3C3CC3)C2)C1 (single isomer, unassigned) [Compound 163] | 0.0001 µM | 0.011 µM | 4.37 µM
CC(C)[C@H]([C@H]1C[C@@H](N(C)C2CCOCC2)C1)N1CC2(CCN(c3ncnnc3Oc3ccc(F)cc3-c3cncnc3C3CC3)C2)C1 (single isomer, unassigned) [Compound 164] | 0.0001 µM | 0.01 µM | 1.41 µM
CC(C)[C@@H]([C@H]1C[C@@H](NC2CCOCC2)C1)N1CC2(CCN(c3ncnnc3Oc3ccc(F)cc3-c3cncnc3C3CC3)C2)C1 (single isomer, unassigned) [Compound 165] | 0.0008 µM | 0.2 µM | 9.91 µM
CC(=O)N1CC2(C1)CN([C@H]1C[C@@H]([C@@H](C(C)C)N3CC4(CCN(c5ncnnc5Oc5ccc(F)cc5-c5cncnc5C5CC5)C4)C3)C1)C2 (single isomer, unassigned) [Compound 170] | 0.0001 µM | 0.005 µM | 8.68 µM
CC(=O)N1CC2(C1)CN([C@H]1C[C@H]([C@@H](C(C)C)N3CC4(CCN(c5ncnnc5Oc5ccc(F)cc5-c5cncnc5C5CC5)C4)C3)C1)C2 (single isomer, unassigned) [Compound 171] | 0.0001 µM | 0.031 µM | > 15 µM
CC(=O)N1CCC12CN([C@H]1C[C@@H]([C@@H](C(C)C)N3CC4(CCN(c5ncnnc5Oc5ccc(F)cc5-c5cncnc5C5CC5)C4)C3)C1)C2 (single isomer, unassigned) [Compound 172] | 0.0001 µM | 0.022 µM | 10.1 µM
CC(=O)N1CCC12CN([C@H]1C[C@H]([C@@H](C(C)C)N3CC4(CCN(c5ncnnc5Oc5ccc(F)cc5-c5cncnc5C5CC5)C4)C3)C1)C2 (single isomer, unassigned) [Compound 173] | 0.0002 µM | 0.15 µM | > 15 µM
CC(=O)N1CCCC12CN([C@H]1C[C@@H]([C@@H](C(C)C)N3CC4(CCN(c5ncnnc5Oc5ccc(F)cc5-c5cncnc5C5CC5)C4)C3)C1)C2 (single isomer, unassigned) [Compound 174] | 0.0001 µM | 0.009 µM | 7.4 µM
CC(=O)N1CCCC12CN([C@H]1C[C@H]([C@@H](C(C)C)N3CC4(CCN(c5ncnnc5Oc5ccc(F)cc5-c5cncnc5C5CC5)C4)C3)C1)C2 (single isomer, unassigned) [Compound 175] | 0.0001 µM | 0.11 µM | > 15 µM
CC(=O)N[C@H]1C[C@@H]([C@@H](C(C)C)N2CC3(CCN(c4ncnnc4Oc4ccc(F)cc4-c4nccnc4C4CC4)C3)C2)C1 (single isomer, unassigned) [Compound 177] | 0.0002 µM | 0.037 µM | 8.87 µM
CC(=O)N[C@H]1C[C@@H]([C@H](C(C)C)N2CC3(CCN(c4ncnnc4Oc4ccc(F)cc4-c4nccnc4C4CC4)C3)C2)C1 (single isomer, unassigned) [Compound 178] | 0.108 µM | > 0.94 µM | > 15 µM
CC(=O)N[C@H]1C[C@@H]([C@@H](C(C)C)N2CC3(CCN(c4ncnnc4Oc4ccc(F)cc4-c4ncncc4C4CC4)C3)C2)C1 (single isomer, unassigned) [Compound 180] | 0.0003 µM | 0.062 µM | 10.1 µM
CC(=O)N[C@H]1C[C@@H]([C@H](C(C)C)N2CC3(CCN(c4ncnnc4Oc4ccc(F)cc4-c4ncncc4C4CC4)C3)C2)C1 (single isomer, unassigned) [Compound 181] | 0.0969 µM | > 0.94 µM | > 15 µM
CC(C)[C@H]([C@H]1C[C@@H](NC(=O)C2CC2)C1)N1CC2(CCN(c3ncnnc3Oc3ccc(F)cc3-c3cnncc3C3CC3)C2)C1 (single isomer, unassigned) [Compound 185] | 0.0001 µM | 0.006 µM | 6.04 µM
CC(C)[C@@H]([C@H]1C[C@@H](NC(=O)C2CC2)C1)N1CC2(CCN(c3ncnnc3Oc3ccc(F)cc3-c3cnncc3C3CC3)C2)C1 (single isomer, unassigned) [Compound 186] | 0.0054 µM | > 0.94 µM | 7.05 µM
CC(C)[C@H]([C@H]1C[C@@H](N2CCC[C@H](F)C2)C1)N1CC2(CCN(c3ncnnc3Oc3ccc(F)cc3-c3cncnc3C3CC3)C2)C1 (single isomer, unassigned) [Compound 200] | 0.0001 µM | 0.016 µM | 9.71 µM
CC1CN([C@H]2C[C@@H]([C@@H](C(C)C)N3CC4(CCN(c5ncnnc5Oc5ccc(F)cc5-c5cncnc5C5CC5)C4)C3)C2)CCC1O (single isomer, unassigned) [Compound 201] | 0.0002 µM | 0.006 µM | 4.24 µM
CC(C)[C@H]([C@H]1C[C@H](N2CCC3(C2)CS(=O)(=O)C3)C1)N1CC2(CCN(c3ncnnc3Oc3ccc(F)cc3-c3cncnc3C3CC3)C2)C1 (single isomer, unassigned) [Compound 204] | 0.0003 µM | 0.19 µM | > 15 µM
CC(C)[C@H]([C@H]1C[C@@H](N2CCC3(C2)CS(=O)(=O)C3)C1)N1CC2(CCN(c3ncnnc3Oc3ccc(F)cc3-c3cncnc3C3CC3)C2)C1 (single isomer, unassigned) [Compound 205] | 0.0001 µM | 0.039 µM | 8.47 µM
CC(C)[C@H]([C@H]1C[C@@H](N2CCC[C@@H](F)C2)C1)N1CC2(CCN(c3ncnnc3Oc3ccc(F)cc3-c3cncnc3C3CC3)C2)C1 (single isomer, unassigned) [Compound 206] | 0.0002 µM | 0.009 µM | 7.95 µM
CC(C)[C@H]([C@H]1C[C@@H](N2CCOCC2)C1)N1CC2(CCN(c3ncnnc3Oc3ccc(F)cc3-c3cncnc3C3CC3)C2)C1 (single isomer, unassigned) [Compound 208] | 0.0003 µM | 0.029 µM | 9.13 µM
CC(C)[C@H]([C@H]1C[C@@H](N2CCC(S(=O)(=O)C(C)C)CC2)C1)N1CC2(CCN(c3ncnnc3Oc3ccc(F)cc3-c3cncnc3C3CC3)C2)C1 (single isomer, unassigned) [Compound 209] | 0.0003 µM | 0.016 µM | 5.26 µM
CO[C@@H]1CCN([C@H]2C[C@@H]([C@@H](C(C)C)N3CC4(CCN(c5ncnnc5Oc5ccc(F)cc5-c5cncnc5C5CC5)C4)C3)C2)C1 (single isomer, unassigned) [Compound 211] | 0.0001 µM | 0.003 µM | > 15 µM
CC(C)[C@H]([C@H]1C[C@@H](N2C[C@H](O)C3(CCC3)C2)C1)N1CC2(CCN(c3ncnnc3Oc3ccc(F)cc3-c3cncnc3C3CC3)C2)C1 (single isomer, unassigned) [Compound 214] | 0.0001 µM | < 0.002 µM | 3.63 µM
CC(C)[C@H]([C@H]1C[C@@H](N2C[C@@H](O)C3(CCC3)C2)C1)N1CC2(CCN(c3ncnnc3Oc3ccc(F)cc3-c3cncnc3C3CC3)C2)C1 (single isomer, unassigned) [Compound 215] | 0.0001 µM | 0.002 µM | 7.94 µM
CC(C)[C@H]([C@H]1C[C@@H](N2CCC3(CC2)COC3)C1)N1CC2(CCN(c3ncnnc3Oc3ccc(F)cc3-c3cncnc3C3CC3)C2)C1 (single isomer, unassigned) [Compound 231] | 0.0001 µM | 0.007 µM | 5.52 µM
